According to PubChem BioAssay (NCI):
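Five compound concentrations were applied to cells in 96-well plates for 48 hours; endpoints were derived by simple linear interpolation of the resulting dose-response curve. GI50 is the concentration that inhibits growth by half. At the TGI there is no net growth.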

Columns and labels:
Test in all cases: DTP human tumour cell line panel, 48 h
[1] = tested on: SW-620 colon
[2] = tested on: OVCAR-3 ovarian
[3] = tested on: SK-OV-3 ovarian
[4] = tested on: SK-MEL-5 melanoma
[5] = tested on: MALME-3M melanoma
[6] = tested on: UACC-62 melanoma
[7] = tested on: HT29 colon
[8] = tested on: SF-268 CNS
[9] = tested on: SK-MEL-28 melanoma
[10] = tested on: OVCAR-4 ovarian

Compound	TGI [1] [µM]	TGI [2] [µM]	TGI [3] [µM]	TGI [4] [µM]	TGI [5] [µM]	TGI [6] [µM]	TGI [7] [µM]	TGI [8] [µM]	TGI [9] [µM]	TGI [10] [µM]	GI50 [1] [µM]	GI50 [2] [µM]	GI50 [3] [µM]	GI50 [4] [µM]	GI50 [6] [µM]	GI50 [7] [µM]	GI50 [8] [µM]	GI50 [9] [µM]	GI50 [10] [µM]	GI50 [5] [µM]
CC1=C(C)C(=O)c2c(cc3ccccn23)C1=O	35.5	29.2	63.6	22.1	17	35.4	36.6	52.8	34	> 100	–	–	–	–	–	–	–	–	–	–
CCOc1ccc(NC(=O)C(=O)CC(=O)C2=C(C)Nc3ccccc3S2)cc1	> 50	> 50	> 50	> 50	> 50	> 50	> 50	> 50	> 50	> 50	–	–	–	–	–	–	–	–	–	–
O=C(NCCO)Nc1ccc(-c2nc(N3CCOCC3)c3cccn3n2)cc1	> 100	9.82	0.291	3.67	0.0506	1.84	> 100	> 95.9	4.59	3.75	1.65	0.17	0.0602	0.236	0.0809	0.496	0.164	0.108	0.0892	–
COc1cccc(-n2ncc3c(N/N=C/c4ccc(C(=O)NCCN(C)C)cc4)ncnc32)c1	9.06	6.71	4.68	6.09	7.81	7.39	4.55	8.46	7.28	7.56	4.73	3.31	1.53	2.95	3.72	0.814	4.11	3.5	3.16	3.43
C1C[OH+]CC[OH+]CCNCC[OH+]CC[OH+]CCN1.N.[Cl-].[Pt+4]	> 100	19.4	60.9	25.3	18.3	14.9	> 100	14.5	35.7	11.6	7.62	4.12	15.1	10.3	3.39	22.1	1.99	11.1	2.84	3.14
COc1cc2c(c(OC)c1)C1c3ccccc3NC(=O)N1CC2 (configuration not stated)	> 100	> 100	> 100	15.3	67.8	> 100	> 100	> 100	28.5	> 100	4.68	3.27	3.67	4.01	3.08	3.37	7.02	9.41	8.24	10.4
Cc1ccc(N=Nc2c(O)c(C(=O)O)cc3ccccc23)cc1C	> 100	> 100	> 100	> 100	> 100	> 100	> 100	> 100	> 100	> 100	–	–	–	–	–	–	–	–	–	–
C=CCC[CH2][Sn]([c]1ccccc1)([c]1ccccc1)[c]1ccccc1	2.12	2.91	3.57	3.02	3.05	2.36	4.73	2.71	3.47	2.86	0.856	1.54	1.89	1.65	1.11	2.25	1.26	1.84	1.48	1.56
COC(C(=O)[O][Ge]([CH3])([CH3])[CH3])c1ccccc1 (configuration not stated)	> 100	> 100	> 100	> 100	> 100	> 100	> 100	> 100	> 100	> 100	> 100	> 100	> 100	> 100	> 100	> 100	> 100	> 100	> 100	> 100
OC(c1cc(-c2ccccc2)nc2ccc(Cl)cc12)C1CCCCN1 (configuration not stated)	3.69	5.15	14.4	3.47	3.88	3.68	6.57	14	3.36	8.96	1.94	2.15	3.85	1.91	1.88	2.96	3.06	1.77	3.24	1.99
O=c1cc(-c2ccccc2)[nH]c2ccccc12	> 100	–	> 92.1	19.1	> 100	> 100	> 34.8	> 100	> 100	> 100	0.379	0.342	1.48	0.387	0.519	0.39	3.18	–	0.949	> 100
O=C(NCCCCCCNC(=O)n1cc(F)c(=O)[nH]c1=O)NCCCOCCOCCOCCOCCOCCOCCOCCOCCOCCOCCOCCOCCOCCOCCOCCOCCOCCOCCOCCOCCOCCCNC(=O)C(O)C(O)C(O)C(O)CO (configuration not stated)	> 100	> 100	> 100	> 100	> 100	> 100	> 100	> 100	> 100	> 100	–	–	–	–	–	–	–	–	–	–
CCOC(=O)COc1ccccc1/C=C1\CCC(CN(C)C)C1=O (configuration not stated)	6.64	20.6	31.4	22.4	12	17.4	22.6	12.7	7.21	31.8	–	–	–	–	–	–	–	–	–	–
Cc1ccc(NC(=O)C(=O)C(C#N)c2ccccc2C)cc1C (configuration not stated)	> 61.3	> 100	> 100	> 100	> 100	> 100	> 100	> 100	> 100	> 100	–	–	–	–	–	–	–	–	–	–
Oc1cccc2ccc(N/N=C/c3cc(CN4CCCCC4)c(O)c4ncccc34)nc12	3.52	1.74	0.653	0.0559	4.49	4.9	1.46	13.4	15.9	1.6	0.0362	0.0858	0.0435	0.0239	0.0459	0.324	0.0635	0.362	0.162	0.223
